From US20040171622A1, “Cardioprotective delta opioid receptor agonists and methods of using same” (priority 2003, published 2004)
Where two headings read alike, the source gives them in different places.

Experiments:
[1] = tested on: rats; experiment: Tail pinch test for analgesia; format: in vivo, rat; details: intravenous
Experimental: (§1) Analgesia was assayed in rats using the tail pinch test. Compound 1 was administered intravenously. Nociceptive response values were obtained for a 1-2 hour period. An artery clamp was placed on the tail (one inch from the tip of the tail) for a short duration until an escape response occurred (i.e. tail-flick or vocalization). The escape response latency was recorded by means of a stopwatch. A cutoff time of 20 sec. was used to prevent unnecessary tissue damage. […] The elapsed time to elicit a pain response was recorded as the tail pinch latency in seconds.
(§2) Further, the compound acts predominately at peripheral delta opioid receptors.

[2] = target: T1, δ opioid receptor (Rattus norvegicus, UniProt P33533); experiment: Radioligand binding ([3H]Deltorphin II), rat brain membranes
T1 construct: tissue Pel-Freeze Biological Inc. (Rogers, Ark.); host or cells: rat whole brain membranes

[3] = tested on: rats; experiment: In vivo LAD coronary artery ligation (35 min) and reperfusion, infarct size, pretreatment 15 min prior; set-up: species or system rat; details: 1 mg/kg i.v.
[4] = tested on: rats; experiment: In vivo coronary artery occlusion (30 min) and reperfusion, pre-ischemic administration; set-up: species or system rat
[5] = tested on: hearts isolated from Sprague-Dawley rats; experiment: tissue or blood; set-up: species or system rat; details: for % IS/AAR: about 15 min prior to occlusion; for inhibition at 0.0001 µM / inhibition at 0.001 µM / inhibition at 0.01 µM: Rattus norvegicus, after 35 min regional ischemia and 120 min reperfusion; for inhibition at 0.0001 µM: 0.1 nM; for inhibition at 0.001 µM: 1.0 nM
[6] = target: T2, μ opioid receptor (Rattus norvegicus, UniProt P33535); experiment: Radioligand binding ([3H]DAMGO), rat brain membranes
T2 construct: tissue Pel-Freeze Biological Inc. (Rogers, Ark.); host or cells: rat whole brain membranes

[7] = tested on: rats; experiment: In vivo coronary artery occlusion and reperfusion, administration immediately prior to reperfusion; set-up: species or system rat; details: 0.3 mg/kg, administered at time of reperfusion
[8] = target: T3, κ opioid receptor (Cavia porcellus, UniProt P41144); experiment: Radioligand binding ([3H]U69593), guinea pig cerebellum membranes
T3 construct: tissue Pel-Freeze Biological Inc. (Rogers, Ark.); host or cells: guinea pig cerebellum membranes

[9] = tested on: rats; experiment: Observation of seizures in tail pinch test animals; format: in vivo, rat; details: intravenous, up to 50 mg/kg
Experimental: as §1, §2

[10] = 0.03 mg/kg i.v. 5 min prior to occlusion
[11] = 0.3 mg/kg i.v. 5 min prior to occlusion

T3 sequence (P41144 whole entry): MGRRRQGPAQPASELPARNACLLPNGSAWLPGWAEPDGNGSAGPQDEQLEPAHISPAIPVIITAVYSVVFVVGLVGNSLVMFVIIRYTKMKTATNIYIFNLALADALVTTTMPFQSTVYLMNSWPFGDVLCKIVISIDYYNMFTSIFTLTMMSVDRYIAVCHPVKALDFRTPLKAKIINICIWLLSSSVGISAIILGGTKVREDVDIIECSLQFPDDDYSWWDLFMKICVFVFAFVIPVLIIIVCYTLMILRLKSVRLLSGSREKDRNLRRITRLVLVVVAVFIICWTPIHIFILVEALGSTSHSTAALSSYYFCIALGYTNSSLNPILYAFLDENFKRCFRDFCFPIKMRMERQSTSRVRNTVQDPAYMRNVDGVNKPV
T1 sequence (P33533 whole entry): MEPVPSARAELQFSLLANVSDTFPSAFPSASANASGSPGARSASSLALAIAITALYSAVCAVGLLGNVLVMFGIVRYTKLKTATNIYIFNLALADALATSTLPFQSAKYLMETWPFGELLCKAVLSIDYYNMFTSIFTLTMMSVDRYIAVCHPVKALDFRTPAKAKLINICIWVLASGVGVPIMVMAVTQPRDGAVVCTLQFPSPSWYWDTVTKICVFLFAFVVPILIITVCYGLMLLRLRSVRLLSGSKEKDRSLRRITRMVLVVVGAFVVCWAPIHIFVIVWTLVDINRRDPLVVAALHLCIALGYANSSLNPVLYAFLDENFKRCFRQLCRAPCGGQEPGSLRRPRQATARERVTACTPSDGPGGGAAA
T2 sequence (P33535 whole entry): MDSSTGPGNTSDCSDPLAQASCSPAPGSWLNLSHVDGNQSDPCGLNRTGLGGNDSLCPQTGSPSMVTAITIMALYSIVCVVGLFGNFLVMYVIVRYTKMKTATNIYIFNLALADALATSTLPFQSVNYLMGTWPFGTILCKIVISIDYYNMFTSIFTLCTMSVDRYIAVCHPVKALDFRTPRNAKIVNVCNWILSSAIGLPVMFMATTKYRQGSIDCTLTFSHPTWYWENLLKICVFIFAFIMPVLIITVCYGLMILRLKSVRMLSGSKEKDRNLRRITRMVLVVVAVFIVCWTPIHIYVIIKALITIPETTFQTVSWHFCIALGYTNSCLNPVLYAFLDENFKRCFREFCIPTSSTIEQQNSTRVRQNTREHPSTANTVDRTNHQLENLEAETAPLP

CCN(CC)C(=O)c1ccc([C@H](c2cccc(O)c2)N2C[C@@H](C)N(Cc3ccc(C(=O)O)cc3)C[C@@H]2C)cc1 [Compound 1] was tested, and the ED50 ([1]; Rattus norvegicus, 20 sec cutoff) was > 50 mg/kg, the analgesic activity [1] was “no analgesic activity” and the Ki [2] was 0.00189 µM. The “Reduction of Infarct Size Relative to Non treated Control” value ([3]; measurement 156 hours after administration (approximately 7 days)) was 43%, the “Reduction of Infarct Size Relative to Non treated Control” value ([3]; measurement after acute administration) was 48% and the “Study 1 (% IS/AAR)” value ([4]; 0.01 mg/kg i.v. 5 min prior to occlusion) was 56 ± 5%. For the same compound, the “Study 1 (% IS/AAR)” value [4, 10] was 44 ± 10%, the “Study 2 (% IS/AAR)” value [4, 10] was 40 ± 3% and the “Study 2 (% IS/AAR)” value ([4]; 0.1 mg/kg i.v. 5 min prior to occlusion) was 39 ± 3%. The “Study 1 (% IS/AAR)” value [4, 11] was 35 ± 11%, the “Study 2 (% IS/AAR)” value [4, 11] was 38 ± 3% and the “Study 1 (% IS/AAR)” value ([4]; 1.0 mg/kg i.v. 5 min prior to occlusion) was 40 ± 8%. The “reduction of infarct size relative to control group” value ([5]; 1 nM acute pretreatment, one group, FIG. 1) was 71%, the “% IS/AAR” value ([5]; 1 nM, isolated rat heart) was 18 ± 5% and the “% IS/AAR” value ([5]; 2 nM, isolated rat heart) was 9 ± 2%. For the same compound, the “protection against damage present in control group (maximal protection)” value ([5]; 2 nM, isolated rat heart) was ~90%, the “% IS/AAR” value ([5]; 10 nM, isolated rat heart) was 20 ± 6% and the inhibition at 0.0001 µM ([5]; read-out: +dP/dt % inhibition) was 26%. It also gave an inhibition at 0.0001 µM ([5]; read-out: CF % inhibition) of 43%, an inhibition at 0.0001 µM ([5]; read-out: HRXDP % inhibition) of 32% and an inhibition at 0.0001 µM ([5]; read-out: −dP/dt % inhibition) of 19%. It also gave an inhibition at 0.001 µM ([5]; read-out: +dP/dt % inhibition) of 7%, an inhibition at 0.001 µM ([5]; read-out: CF % inhibition) of 13% and an inhibition at 0.001 µM ([5]; read-out: HRXDP % inhibition) of 17%. The inhibition at 0.001 µM ([5]; read-out: −dP/dt % inhibition) was 10%, the inhibition at 0.01 µM ([5]; 10 nM, read-out: +dP/dt % inhibition) was 21% and the inhibition at 0.01 µM ([5]; 10 nM, read-out: CF % inhibition) was 38%. For the same compound, the inhibition at 0.01 µM ([5]; 10 nM, read-out: HRXDP % inhibition) was 32%, the inhibition at 0.01 µM ([5]; 10 nM, read-out: −dP/dt % inhibition) was 18% and the “heart tissue functioning, % of normal (on the average)” value ([5]; pretreated hearts, some parameters up to 90%) was “at least 75%”. For the same compound, the Ki [6] was 1.52 µM, the “protection against control ischemic damage” value [7] was 30-40% and the Ki [8] was 17.4 µM. For the same compound, the Seizures [9] was “NONE” and the Seizures ([9]; listed as compound (1)) was “no seizures were observed”.
